{"source": "patent US20200397718A1", "about": "“USE OF HYDROXYTYROSOL ACETATE IN IMPROVING FUNCTION OF AORTIC ENDOTHELIAL CELL” (XI'AN JIAOTONG UNIVERSITY, priority 2019, published 2020)", "key": {"[1]": {"system": "human aortic endothelial cells (HAECs)", "test": "MTT assay, relative cell viability of human aortic endothelial cells", "type": "cell-based", "description": "(§1) Human aortic endothelial cells (HAECs) were purchased from Shanghai Shanghai Bioleaf Biotech Co., Ltd. Palmitic acid (PA) was purchased from SIGMA Company. A palmitic acid solution having a concentration of 500 μM was prepared by dissolving palmitic acid in water. A cell culture incubator was adopted to culture the cells in a temperature-constant, humidified, sterile condition. The cells were cultured in wells of culture plates at an atmosphere of 95% air and 5% CO2 at 37° C. in the incubator. The experiments were performed on different experimental groups of cells. The experiments were performed on three experimental groups of cells: (1) control group; (2) 500 μM palmitic acid treatment group; and (3) hydroxytyrosol acetate protection group.\nThe HAECs that were previously cultured in a 12-well cell culture plate were divided into 4 different experimental groups and respectively applied with hydroxytyrosol acetate in different concentrations, 0 μM, 10 μM, 50 μM, and 100 μM, all followed with an 24-hour incubation. […]\nAn MTT assay was performed to all groups of cells. […] The absorbance was measured at a wavelength of 490 nm in a spectrophotometer. The absorbance of this colored solution can be quantified by measuring at a certain wavelength (usually between 500 and 600 nm) by a spectrophotometer."}, "[2]": {"system": "IL-6, MMP-1, ICAM-1 and PAI-1 mRNA in human aortic endothelial cells", "test": "mRNA levels of IL-6, MMP-1, ICAM-1 and PAI-1 (RT-PCR) in palmitic acid-induced inflammation of HAECs", "type": "cell-based", "description": "as §1\n(§2) The HAECs that were previously cultured in a 12-well cell culture plate were divided into 5 different experimental groups and respectively applied with hydroxytyrosol acetate in respective concentrations, 0 μM, 0 μM, 10 μM, 50 μM, and 100 μM, all followed with an 24-hour incubation. Then, the last 4 groups of cells were respectively applied with 500 μM palmitic acid, the first was not, all followed with another 24-hour incubation. The detecting of mRNA levels corresponding to interleukin-6 (IL-6), matrix metalloproteinase-1 (MMP-1), intercellular adhesion molecule-1 (ICAM-1) and plasma plasminogen activator inhibitor-1 (PAI-1) were respectively carried out on each group of cells by using reverse transcription RNA and real-time quantitative polymerase chain reaction (PCR), and the specific method is as follows:\nThe medium for cell culture in the wells was removed. 500 μL of TRIzol™ reagent was added to each well, and the culture plate was then shaken at room temperature for 5 minutes. Then the cells in the wells were collected and transferred to a 1.5 mL Eppendorf® (EP) tube. 200 μl (taking ⅕ of total volume of the substance in the EP tube) of chloroform was then added to the EP tube for extraction of protein. […] The concentration of the solution was measured by an ultraviolet spectrophotometer. […]"}, "[3]": {"system": "reactive oxygen species in human aortic endothelial cells", "test": "Detection of reactive oxygen species (H2DCF-DA) in HAECs", "type": "cell-based", "description": "as §1\nThe cultured HAECs were divided into 3 different experimental groups, the control (Ctrl) group, the PA group, and the hydroxytyrosol acetate+PA (HTac+PA) group. The cells of the HTac+PA group were applied with hydroxytyrosol acetate in a concentration of 100 μM followed with a 24-hour incubation. Then, the cells of both the PA group and the HTac+PA group were applied with 500 μM palmitic acid, all followed with another 24-hour incubation.\nAfter treating the cells with hydroxytyrosol acetate and palmitic acid, and discarding the medium, the cells were rinsed once with PBS. […] The supernatant was collected and measured by a microplate reader."}, "[4]": {"system": "mitochondrial membrane fusion-related proteins Mfn1, Mfn2", "test": "Western blot of mitochondrial membrane fusion-related proteins in HAECs", "type": "cell-based, human", "description": "as §1, with “group. […]” for “group.”\nThe medium for cell culture in the wells was removed. […] The supernatants were collected, and the proteins therein were quantified by bicinchoninic acid (BCA) assay, and normalized. […]\n10 μg of the extracted proteins were subjected to gel electrophoresis with 10% acrylamide gel, and electrophoretic transferred onto a PVDF membrane, which were blocked, and incubated with a primary antibody at 4° C. overnight, free primary antibody was washed away. […] Target proteins were detected by chemiluminescence."}, "[5]": {"system": "matrix metalloproteinase-1 (MMP-1) mRNA", "test": "mRNA level corresponding to MMP-1 (RT-PCR) in HAECs", "type": "cell-based, human", "details": "500 μM palmitic acid, 24 h", "description": "as §1, with “The experiments were performed on three experimental groups of cells: (1) control group; (2) 500 μM palmitic acid treatment group; and (3) hydroxytyrosol acetate protection group.” left out\nas §2, with “Then, the last 4 groups of cells were respectively applied with 500 μM palmitic acid, the first was not, all followed with another 24-hour incubation.” left out\n(§3) The medium for cell culture in the wells was removed. […] The concentration of the solution was measured by an ultraviolet spectrophotometer. […]"}, "[6]": {"system": "interleukin-6 (IL-6) mRNA", "test": "mRNA level corresponding to IL-6 (RT-PCR) in HAECs", "type": "cell-based, human", "details": "500 μM palmitic acid, 24 h", "description": "as §1, with “The experiments were performed on three experimental groups of cells: (1) control group; (2) 500 μM palmitic acid treatment group; and (3) hydroxytyrosol acetate protection group.” left out\nas §2, with “Then, the last 4 groups of cells were respectively applied with 500 μM palmitic acid, the first was not, all followed with another 24-hour incubation.” left out\nas §3"}, "[7]": {"details": "100 μM, 24 h pre-treatment, then 500 μM palmitic acid 24 h"}}, "data": [{"molecule": "hydroxytyrosol acetate", "values": [{"measurement": "proliferation of human aortic endothelial cells", "setting": "[1]; 100 μM hydroxytyrosol acetate, 24 h", "value": "promoted"}, {"measurement": "toxic and side effects on human aortic endothelial cells", "setting": "[1]; HAECs, 0-100 μM, FIG. 1", "value": "no toxic and side effects"}, {"measurement": "inhibition of the palmitic acid-induced inflammatory response (mRNA IL-6, MMP-1, ICAM-1, PAI-1)", "setting": "[2]; 50 μM, 24 h pre-treatment, then 500 μM palmitic acid 24 h", "value": "significant inhibition"}, {"measurement": "inhibitory effect on the palmitic acid-induced inflammatory response (mRNA IL-6, MMP-1, ICAM-1, PAI-1)", "setting": "[2]; 100 μM, 24 h pre-treatment, then 500 μM palmitic acid 24 h, compared with 50 μM", "value": "more obvious"}, {"measurement": "production of excessive reactive oxygen species induced by palmitic acid", "setting": "[3]; [7]", "value": "significantly inhibit"}, {"measurement": "expression of Mfn2", "setting": "[4]; [7]", "value": "significantly increasing"}]}, {"molecule": "CCCCCCCCCCCCCCCC(=O)O", "note": "[palmitic acid, reference compound]", "values": [{"measurement": "increase of mRNA level corresponding to MMP-1 versus control", "setting": "[5]", "value": "about 10 times"}, {"measurement": "inflammatory cytokines IL-6, MMP-1, ICAM-1 and PAI-1 versus control group", "setting": "[2]; 500 μM palmitic acid, 24 h", "value": "significantly higher"}, {"measurement": "production of reactive oxygen species ROS", "setting": "[3]; 500 μM palmitic acid, 24 h", "value": "a large amount"}, {"measurement": "increase of mRNA level corresponding to IL-6 versus control", "setting": "[6]", "value": "about 20 times"}, {"measurement": "expression of mitochondrial membrane fusion-related proteins Mfn1, Mfn2", "setting": "[4]; 500 μM palmitic acid, 24 h", "value": "reducing"}]}]}
